Structures can show the parent of a compound that is named as a salt. Where two headings read alike, the source gives them in different places.
Tested on: STING activation (IFNβ release) in iBMDMs
Test: IFNβ release ELISA after STING ligand (or LPS) stimulation, iBMDMs
Assay type: cell-based, mouse
Description: Commercially available enzyme-linked immunosorbent assay (ELISA) kits were used to measure the concentrations of mouse IFNβ (Thermo Fisher Scientific) or human IFNβ (Thermo Fisher Scientific) in culture medium according to the manufacturer's instructions. […]

[1] = iBMDMs, 3′3′-cGAMP 10 μg/ml, 16 hours, compound 10 μM

Row | Compound | fold increase in IFN-β release [1] [fold] | other results
1 | COc1ccccc1Oc1c(NS(=O)(=O)c2ccc(C(C)(C)C)cc2)nc(-c2ncccn2)nc1OCCO [Bosentan Hydrate] | 1.20 | 
2 | COc1ccc(C(=O)Nc2sc3c(c2C(N)=O)CCCC3)cc1OC [TCS 359] | 0.45 | 
3 | O=C(NNc1ccccc1)c1ccncc1 [PluriSln #1 (NSC 14613)] | 0.62 | 
4 | Cc1ccc(-c2cc(C(F)(F)F)nn2-c2ccc(S(N)(=O)=O)cc2)cc1 [Celecoxib] | 0.76 | 
5 | CC(C)(Cc1ccc2ccccc2c1)NC[C@@H](O)COc1cccc(Cl)c1C#N [NPS-2143] | 0.99 | 
6 | C=CC(=O)Nc1cccc(Nc2nc(Nc3ccc(OCCOC)cc3)ncc2F)c1 [AVL-292] | 0.16 | 
7 | COc1ccccc1S(=O)(=O)Nc1ccc2c(c1)CN(C)C(=O)N2 [PFI-1 (PF-6405761)] | 0.52 | 
8 | CCOc1ccc(Cc2cc([C@@H]3O[C@H](CO)[C@@H](O)[C@H](O)[C@H]3O)ccc2Cl)cc1 [Dapagliflozin] | 1.57 | 
9 | CCN(CC)CCNC(=O)c1cc(Cl)c(N)cc1OC [MetoclopraMide HCl] | 2.14 | 
10 | CC(=O)OCOC(=O)CN(CC(=O)OCOC(C)=O)c1ccccc1OCCOc1ccccc1N(CC(=O)OCOC(C)=O)CC(=O)OCOC(C)=O [BAPTA-AM] | 0.52 | 
11 | OG-L002 | 1.06 | 
12 | O=C(Oc1cc(S(=O)(=O)c2ccccc2)ccc1[N+](=O)[O-])c1ccc(Cl)cc1 [BTB06584] | 3.11 | 
13 | Oc1c2ccccc2c2c3c(cccc13)N=N2 [SP600125] | 3.35 | 
14 | CNC(=O)c1ccc(N2C(=S)N(c3ccc(C#N)c(C(F)(F)F)c3)C(=O)C2(C)C)cc1F [Enzalutamide (MDV3100), Enzalutamide] | 0.50 | 
15 | NC(=O)c1ncn([C@@H]2O[C@H](CO)[C@@H](O)[C@H]2O)c1N [Acadesine] | 1.02 | 
16 | COc1cccc(C=NCCN=Cc2cccc(OC)c2[O-])c1[O-].[Cl-].[Mn+3] [EUK 134] | 1.10 | 
17 | CC1=C(C(=O)OC2CCCCC2)C(c2ccc([N+](=O)[O-])cc2)C2=C(CC(C)(C)CC2=O)N1 (stereo not shown) [FLI-06] | 2.06 | 
18 | C=CC(=O)N1CCC[C@@H](n2nc(-c3ccc(Oc4ccccc4)cc3)c3c(N)ncnc32)C1 [Ibrutinib (PCI-32765), Ibrutinib] | 0.53 | 
19 | Cc1cccc(-c2[nH]ncc2-c2ccc3ncccc3n2)n1 [RepSox] |  | fold increase in IFN-β release: 0.99 fold
20 | CCC(CC)CC1(C(=O)Nc2ccccc2SC(=O)C(C)C)CCCCC1 [Dalcetrapib (JTT-705, RO4607381), Dalcetrapib] | 0.13 | 
21 | O=C(Nc1nc2cccc(-c3ccc(CN4CCS(=O)(=O)CC4)cc3)n2n1)C1CC1 [Filgotinib (GLPG0634), Filgotinib] | 2.35 | 
22 | CN(c1ncccc1CNc1nc(Nc2ccc3c(c2)CC(=O)N3)ncc1C(F)(F)F)S(C)(=O)=O [PF-562271] | 0.21 | 
23 | O=C(/C=C/c1ccc(O)c(O)c1)OCCc1ccccc1 [Caffeic Acid Phenethyl Ester] | 0.44 | 
24 | CN(C)C(=O)c1ccc(S(=O)(=O)c2ccc(NC(=O)[C@@](C)(O)C(F)(F)F)c(Cl)c2)cc1 [AZD7545] | 3.45 | 

Row | Compound | fold increase in IFN-β release [1] [fold] | other results
25 | COc1ccc2cc([C@H](C)C(=O)O)ccc2c1 [Naproxen] | 1.46 | 
26 | O=C(NCC1(c2nc(-c3ccccc3)cs2)CCOCC1)c1cccc(-c2noc(C(F)(F)F)n2)c1 [TMP269] | 1.59 | 
27 | C=CC(=O)Nc1cccc(Oc2nc(Nc3ccc(N4CCN(C)CC4)cc3OC)ncc2Cl)c1 [WZ4002] | 1.42 | 
28 | CCc1cc(Nc2nccc(-c3c(-c4ccc(OC)c(C(=O)Nc5c(F)cccc5F)c4)nc4ccccn34)n2)c(OC)cc1N1CCC(N2CCN(S(C)(=O)=O)CC2)CC1 [GSK1904529A] | 1.05 | 
29 | C=CC(=O)Nc1cc(Nc2nccc(-c3cn(C)c4ccccc34)n2)c(OC)cc1N(C)CCN(C)C [AZD9291] | 0.85 | 
30 | O=C(Nc1cc(C(F)(F)F)cc(C(F)(F)F)c1)c1cc(Cl)ccc1O [IMD 0354] | 0.86 | 
31 | O=C(c1cncc(Br)c1)N1CCC(N2CCCC2)CC1 [UNC669] | 1.99 | 
32 | Cc1cc(Nc2cc(CN3CCOCC3)c3nc(C)c(Cc4ccc(Cl)cc4F)n3n2)n[nH]1 [LY2784544] | 2.09 | 
33 | CCN(CC)C(=O)/C(C#N)=C/c1cc(O)c(O)c([N+](=O)[O-])c1 [Entacapone] | 0.76 | 
34 | Cc1ccc(S(=O)(=O)Cc2nc(-c3ccc(C(=O)NCc4cccnc4)cc3)oc2C)cc1 [STF-118804] | 1.41 | 
35 | Cc1cn([C@H]2C=C[C@@H](CO)O2)c(=O)[nH]c1=O [Stavudine (d4T), Stavudine] | 8.20 | 3′3′-cGAMP-induced IFNβ release [1]: promoted
36 | O=C(NCCN1CCOCC1)c1ccc(Cl)cc1 [Moclobemide (Ro 111163), Moclobemide] | 1.88 | 
37 | O=c1cc(-c2ccc(O)cc2)oc2cc(O)cc(O)c12 [Apigenin] | 0.44 | 
38 | CC[C@H](NC(=O)[C@H](C)NC)C(=O)N1C[C@@H](O)C[C@H]1Cc1c(-c2[nH]c3cc(F)ccc3c2C[C@@H]2C[C@H](O)CN2C(=O)[C@H](CC)NC(=O)[C@H](C)NC)[nH]c2cc(F)ccc12 [Birinapant] | 1.15 | 
39 | Cc1c(F)cc(C(=O)NC2CC2)cc1-c1ccc(C(=O)NCC(C)(C)C)cn1 [Losmapimod (GW856553X), Losmapimod] | 1.20 | 
40 | Cc1ccc(C(=O)N(CCCN)[C@@H](c2oc3cc(Cl)ccc3c(=O)c2Cc2ccccc2)C(C)C)cc1 [SB743921] | 1.16 | 
41 | N#CC1(c2ccc(NC(=O)c3cccnc3NCc3ccncc3)cc2)CCCC1 [Apatinib] | 0.26 | 
42 | NC(=O)c1cccc(-c2cccc(OC(=O)NC3CCCCC3)c2)c1 [URB597] | 2.07 | 
43 | 6H05 | 1.18 | 
44 | C[C@]12CC[C@@H]3c4ccc(O)cc4C[C@@H](CCCCCCCCC[S+]([O-])CCCC(F)(F)C(F)(F)F)[C@H]3[C@@H]1CC[C@@H]2O (stereo partly shown) [Fulvestrant] | 0.52 | 
45 | CCN[C@H]1CN(CCCOC)S(=O)(=O)c2sc(S(N)(=O)=O)cc21 [Brinzolamide] | 1.93 | 
46 | COc1ccccc1-c1cc(Nc2cccc(CS(N)(=O)=O)c2)ncn1 [LDC000067] | 1.43 | 
47 | PF-04620110 | 3.43 | 
48 | CN1CCCCC1Cn1cc(C(=O)c2cc([N+](=O)[O-])ccc2I)c2ccccc21 (stereo not shown) [AM1241] | 8.07 | 3′3′-cGAMP-induced IFNβ release [1]: promoted

Row | Compound | fold increase in IFN-β release [1] [fold] | other results
49 | Cc1ccc(S(=O)(=O)NC(=O)NN2CC3CCCC3C2)cc1 (stereo not shown) [Gliclazide] | 1.93 | 
50 | c1ccc(CNc2nc(NCc3ccccc3)c3ccccc3n2)cc1 [DBeQ] | 2.18 | 
51 | Cc1nc(C(=O)NCC(=O)O)c(O)c2ccc(Oc3ccccc3)cc12 [FG-4592] | 0.73 | 
52 | Cc1ccccc1C(C(=O)NC1CCCCC1)N(C(=O)Cn1ccnc1C)c1cccc(F)c1 (stereo not shown) [AGI-5198] | 1.13 | 
53 | O=C(NCc1ccccc1)c1csc(Nc2ccncn2)n1 [Thiazovivin] | 8.11 | 3′3′-cGAMP-induced IFNβ release [1]: promoted
54 | IM-12 | 2.17 | 
55 | COC1CCN(C(=O)c2cc(Cc3n[nH]c(=O)c4ccccc34)ccc2F)CC1 [AZD2461] | 2.12 | 
56 | COc1cc2ncnc(Nc3ccc(Cl)cc3F)c2cc1OC [ZM 306416] | 0.14 | 
57 | CC12CC3CC(C)(C1)CC(N)(C3)C2 [Memantine HCl] | 2.60 | 
58 | Tropicamide | 2.09 | 
59 | COc1c(O)cc2c(c1O)[C@@H]1O[C@H](CO)[C@@H](O)[C@H](O)[C@H]1OC2=O [Bergenin] | 0.57 | 
60 | C=CCNC1=C2C[C@@H](C)C[C@H](OC)[C@H](O)[C@@H](C)/C=C(\C)[C@H](OC(N)=O)[C@@H](OC)/C=C\C=C(/C)C(=O)NC(=CC1=O)C2=O [17-AAG (Tanespimycin), Tanespimycin] | 1.53 | 
61 | C1=C/COCc2cc(ccc2OCCN2CCCC2)Nc2nccc(n2)-c2cccc(c2)COC/1 [Pacritinib (SB1518), Pacritinib] | 1.58 | 
62 | CC(C)(C)c1nc(-c2cccc(NS(=O)(=O)c3c(F)cccc3F)c2F)c(-c2ccnc(N)n2)s1 [Dabrafenib (GSK2118436), Dabrafenib] | 0.86 | 
63 | O=C(C[S+]([O-])Cc1ccco1)NC/C=C\COc1cc(CN2CCCCC2)ccn1 (stereo not shown) [Lafutidine] | 2.85 | 
64 | Cc1cccc(CC(=O)N2CCc3c2ccc(-c2cn(C)c4ncnc(N)c24)c3F)n1 [GSK2656157] | 1.58 | 
65 | Cc1cc(SCc2sc(-c3ccc(C(F)(F)F)c(F)c3)nc2C)ccc1OCC(=O)O [GW0742] | 0.13 | 
66 | COc1cc(Nc2c(C#N)cnc3cc(OCCCN4CCN(C)CC4)c(OC)cc23)c(Cl)cc1Cl [Bosutinib (SKI-606), Bosutinib] | 1.78 | 
67 | O=C(Nc1ccccc1)N1CCN(c2nc(-c3ccccc3)ns2)CC1 [JNJ-1661010] | 1.03 | 
68 | CNC(=O)c1ccccc1Nc1nc(Nc2ccc(N3CCOCC3)cc2OC)ncc1Cl [TAE226 (NVP-TAE226)] | 1.50 | 
69 | O=C(O)Cn1nnc(-c2cc(N3CCC(Oc4cc(F)ccc4Br)CC3)no2)n1 [MK-8245] | 0.42 | 
70 | COc1ccc2c(c1)C(=O)N(CCc1ccc(S(=O)(=O)NC(=O)NC3CCCCC3)cc1)C(=O)C2(C)C [Gliquidone] | 1.20 | 
